Patent US20150223453A1, “QUATERNARY AMMONIUM ACID COMPOUNDS AND COMPOSITIONS FOR DISINFECTION, SANITIZATION, AND CLEANING” (LONZA INC., priority 2014, published 2015)

Test system: Pa
Assay: OECD Quantitative Method for Evaluating Bactericidal Activity of Microbiocides Used on Hard, Non-Porous Surfaces
Type: cell-based, Pseudomonas aeruginosa
Details: for level of efficacy / number of organisms reduced (in words): quaternary ammonium acid compounds based on different acids, summary of the OECD tests
Description: One acknowledged method for determining micro efficacy is the OECD (Organisation for Economic Co-operation and Development) Quantitative Method for Evaluating Bactericidal Activity of Microbiocides Used on Hard, Non-Porous Surfaces. This method entails inoculating small, stainless steel disks called carriers with inoculum, in the presence of hard water. It is theorized that microorganisms, such as pseudomonas, form a biofilm on these carriers. Due to the size of the disk, the presence of a biofilm and the surface tension of the liquid on the disk, this requires qua-based systems to be generally over-formulated to achieve the required efficacy to pass testing. This provides an unfair advantage to both acids and oxidizers used as biocides because of their innate ability to oxidize steel, remove the biofilm without being affected by hard water. This invention combats this issue by combining the biocidal power of quaternary ammonium compound with the oxidizing power of acid.

[1] = 800 ppm Active/375 ppm Hard Water/5% Organic Soil/5 Minute Contact Time

## CC(=O)[O-].CCCCCCCCCC[N+](C)(C)CCCCCCCCCC [Acetic]
[1]
  OECD results of Quaternium Ammonium Acid Molecule, Test 1: 5.71
  OECD results of Quaternium Ammonium Acid Molecule, Test 2: 4.93
  level of efficacy / number of organisms reduced (in words): greatest level of efficacy
Listed as acetic acid
  level of efficacy / number of organisms reduced (in words): highest number of organisms reduced

## CCCCCCCCCC[N+](C)(C)CCCCCCCCCC.O=C([O-])CO [Glycolic]
[1]
  OECD results of Quaternium Ammonium Acid Molecule, Test 1: 1.99

## CCCCCCCCCC[N+](C)(C)CCCCCCCCCC.O=[N+]([O-])[O-] [Nitric]
[1]
  OECD results of Quaternium Ammonium Acid Molecule, Test 1: 1.94

## O=P(O)(O)O [Phosphoric]
[1]
  OECD results of Quaternium Ammonium Acid Molecule, Test 2: 4.93
  level of efficacy / number of organisms reduced (in words): greatest level of efficacy
Listed as phosphoric acid
  level of efficacy / number of organisms reduced (in words): highest number of organisms reduced

## CCCCCCCCCC[N+](C)(C)CCCCCCCCCC.NS(=O)(=O)[O-] [Sulfamic]
[1]
  OECD results of Quaternium Ammonium Acid Molecule, Test 1: 4.66
  level of efficacy / number of organisms reduced (in words): greatest level of efficacy
Listed as sulfamic acid
  level of efficacy / number of organisms reduced (in words): highest number of organisms reduced

## O=C(O)C(O)C(O)C(=O)O (stereo not drawn) [Tartaric]
[1]
  OECD results of Quaternium Ammonium Acid Molecule, Test 1: 4.22
  OECD results of Quaternium Ammonium Acid Molecule, Test 2: 3.05
  level of efficacy / number of organisms reduced (in words): greatest level of efficacy
Listed as tartaric acid
  level of efficacy / number of organisms reduced (in words): highest number of organisms reduced

## Oxalic
[1]
  OECD results of Quaternium Ammonium Acid Molecule, Test 1: 5.54
  level of efficacy / number of organisms reduced (in words): greatest level of efficacy
Listed as oxalic acid
  level of efficacy / number of organisms reduced (in words): highest number of organisms reduced

## Sulfuric
[1]
  OECD results of Quaternium Ammonium Acid Molecule, Test 1: 3.14

## didecyl dimethyl ammonium carbonate/bicarbonate [Quat Carbonate, reference compound]
Quaternium Ammonium Chloride in Acid Solution, 800 ppm Active/375 ppm Hard Water/5% Organic Soil/5 Minute Contact Time
  Log10 Reduction vs. Pa: <2.82 Log10
